Laboratory results as given in patent US10233165B2, “Cyclopropylamine compounds as histone demethylase inhibitors” (IEO—Instituto Europeo di Oncologia S.r.l., priority 2014, dated 2019).
Counter-ions that a name gives are not always drawn. Like-named read-outs stand apart in the source and are kept apart here.

What was measured:
[1] = system: Human leukemia MV4-11 cells; assay: Cell growth, CellTiter-Fluor viability assay; type: cell-based; conditions: 48 h incubation, read-out: IC50 [μM] cell growth inhibitory assay
Text: CellTiter-Flor® (Promega) is a nonlytic, single-reagent-addition fluorescence assay that measures the relative number of living cells in a culture population after experimental manipulation. The CellTiter-Fluor™ Cell Viability Assay measures the conserved and constitutive protease activity within live cells and therefore acts as a marker for cell viability.
Human leukemia MV4-11 cells, (obtained from the Deutsche Sammlung von Mikroorganismen and Zellkulturen, ACC 102) in exponential growth, were incubated for 48 h with different concentrations of the inhibitors (e.g. from 0 to 100 μM). After 48 h a volume of CellTiterFluor® Reagent equal to the volume of cell culture medium was added. The content was mixed and incubates for at least 90 min at 37° C. degree to obtain a stable signal. The fluorescence was recorded using an excitation wavelength of 360 nm and an emission at 535 nm. The IC50 was calculated using GraphPad Software.

Human recombinant MAO A = molecular target: T1, Human recombinant MAO A (Homo sapiens, UniProt P21397); assay: Bioluminescent-coupled assay for monoamine oxidases (MAO-Glo), MAO-A; type: biochemical; conditions: for IC50 (MAO-A)/ IC50 (LSD1): ratio, 15 min preincubation of compound with enzyme
T1 construct: made in house; host or cells: Pichia pastoris
T1 sequence (P21397 1-527): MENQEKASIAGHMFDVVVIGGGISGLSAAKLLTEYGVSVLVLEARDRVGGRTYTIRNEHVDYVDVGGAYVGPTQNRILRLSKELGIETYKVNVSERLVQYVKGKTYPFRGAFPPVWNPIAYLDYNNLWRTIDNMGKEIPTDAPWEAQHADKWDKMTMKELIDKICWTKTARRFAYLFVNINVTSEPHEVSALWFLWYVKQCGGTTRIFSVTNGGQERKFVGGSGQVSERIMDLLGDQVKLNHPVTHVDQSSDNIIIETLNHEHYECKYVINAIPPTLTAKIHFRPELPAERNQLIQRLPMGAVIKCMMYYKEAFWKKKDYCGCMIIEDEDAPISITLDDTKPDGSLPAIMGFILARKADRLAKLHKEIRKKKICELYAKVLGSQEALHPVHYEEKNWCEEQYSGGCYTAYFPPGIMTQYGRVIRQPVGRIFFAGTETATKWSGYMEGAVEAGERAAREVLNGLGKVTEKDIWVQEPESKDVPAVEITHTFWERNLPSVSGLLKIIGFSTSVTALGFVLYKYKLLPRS
Experimental: The MAO-Glo Assay from Promega (cat. V1402, Promega, Madison, Wis.) was used to measure the effect of inhibitors on MAO-A and MAO-B activity.
Human recombinant MAO A and MAO B were expressed in Pichia pastoris and purified as published (Binda C. et al. Proc. Natl. Acad. Sci. USA, 2003, 9750-9755). The assay was performed at RT in 50 μL (25 μL reaction solution+25 μL detection reagent) in 96 well half area white plates (cat. 3693, Corning, Corning, N.Y.). Luminescence was measured after 20 min incubation in the dark using a microplate reader (Infinite F200, Tecan Group, Switzerland) with an integration time of 0.25 s per well.
50 nM MAO-A or 125 nM MAO-B were incubated with five different inhibitor concentrations (from 0.004 μM to 100 μM) for 15 min at RT in Promega MAO Buffer or Promega MAO-B Buffer (MAO-Glo Assay kit, catalogue number V1402, Promega, Madison, Wis.). […] After 30 min of incubation the reaction was stopped with the Promega detection reagent. The experiments were carried out in duplicate. IC50 was calculated using GraphPad Prism version 4.0 (GraphPad Software, San Diego, Calif.).

CD14 mRNA in THP-1 cells [2] = assay: THP-1 target modulation, CD14 mRNA by quantitative RT-PCR; type: cell-based, human; conditions: 0.1 μM inhibitor, 5 days, normalized against TBP mRNA
Experimental: (§1) For this scope THP-1 cells (ACC 16: DSMZ Leibniz Institute DSMZ German collection of Microorganism and cell culture) were plated at cellular density of 50.000 cells/mL and were incubated with the inhibitor at a fixed concentration of 0.1 μM for 5 days. Then, the cells were recovered and mRNA extracted to follow mRNA levels of the macrophage-specific genes CD14. mRNA expression was measured by quantitative RT-PCR (Fast SYBR Green Master mix, Applied Biosystems Foster City, Calif.) using specific primers and normalized against TBP mRNA. […] Primers used in this study were: […]

human THP-1 cells = assay: THP-1 methylcellulose assay, colony formation; type: cell-based; conditions: 500 nM inhibitor, 13 days, versus vehicle; for inhibition at 0.5 µM: Homo sapiens, THP-1, 312 h
Experimental: The KDM1A inhibitors were tested for their anti-clonogenic potential on human THP-1 cells (ACC 16: DSMZ Leibniz Institute DSMZ German collection of Microorganism and cell culture).
(§2) THP-1 cells were plated at a density of 250 cells per plate and cultured with the inhibitors at a fixed dose of 500 nM in MethoCult™ H4435 Enriched medium (StemCell Technologies, Vancouver, BC) for 13 days according to the manufacturer instructions. Then, the colony forming potential was scored by direct visualization using an inverted microscope and the percentage of inhibition over the vehicle was assessed. In addition, the cells were harvested and compounds-induced maturation was monitored by changes in the mRNA levels of macrophage-specific genes (CD14) as reported above.

CD14 mRNA in THP-1 cells [3] = assay: THP-1 methylcellulose assay, CD14 mRNA in harvested cells; type: cell-based, human; conditions: THP-1 cells harvested from methylcellulose, 500 nM inhibitor, 13 days
Experimental: as §1, §2

[4] = molecular target: T2, human recombinant KDM1A (LSD1)/CoRest complex (Homo sapiens, UniProt O60341); assay: Assay of enzyme inhibition of KDM1A (LSD1), Amplex UltraRed/peroxidase; type: biochemical; conditions: result in words
T2 construct: made in house; host or cells: E. coli
Experimental: The complex of human recombinant KDM1A (LSD1)/CoRest protein was produced in E. coli as separate proteins and co-purified following previously reported procedures (Forneris F. et al. Trends Biochem. Sci. 2008, 33, 181-189; Forneris F. et al. J. Biol. Chem. 2007, 282, 20070-20074). The experiments were performed using a mono-methylated H3-K4 peptide containing 21 amino acids (custom synthesis done by Thermo Scientific) as substrate and in 50 mM TRIS, pH 8.0 and 0.05 mg/ml BSA. The peptide purity was >90% as checked by analytical high-pressure liquid chromatography and mass spectrometry.
The demethylase activity was estimated under aerobic conditions and at RT by measuring the release of H2O2 produced during the catalytic process by the Amplex® UltraRed detection system coupled with peroxidase assay. […] The conversion of the Amplex® Ultra Red reagent to resorufin was monitored in continuous by fluorescence (excitation at 540 nm, emission at 590 nm) using a microplate reader (Infinite 200, Tecan). […] The maximum demethylase activity of KDM1A/CoRest was obtained in the absence of inhibitors and corrected for background fluorescence in the absence of KDM1A/CoRest. The IC50 was calculated using GraphPad Software.

CN1CCN(c2cc(C(=O)Nc3ccc([C@@H]4C[C@H]4N)cc3)ccc2NC(=O)OCc2ccccc2)CC1 (relative stereo) [Example 6, Benzyl N-[4-[[4-[trans-2-aminocyclopropyl]phenyl]carbamoyl]-2-(4-methylpiperazin-1-yl)phenyl]carbamate Dihydrochloride]
IC50 ([1]; Homo sapiens): ≤ 5 µM
IC50 (MAO-A)/ IC50 (LSD1) (Human recombinant MAO A): 15.3
Target modulation CD14 mRNA expression (fold increase versus vehicle) (CD14 mRNA in THP-1 cells [2]): 13 fold increase versus vehicle

N[C@@H]1C[C@H]1c1ccc(NC(=O)c2cccc(N3CCOC3=O)c2)cc1 (relative stereo) [Example 3, N-[4-[trans-2-aminocyclopropyl]phenyl]-3-(2-oxooxazolidin-3-yl)benzamide hydrochloride]
IC50 ([1]; Homo sapiens): ≤ 5 µM
IC50 (MAO-A)/ IC50 (LSD1) (Human recombinant MAO A; hydrochloride): 3.30
Target modulation CD14 mRNA expression (fold increase versus vehicle) (CD14 mRNA in THP-1 cells [2]; hydrochloride): 21.2 fold increase versus vehicle
inhibition at 0.5 µM (human THP-1 cells): 41%
Colony formation Target Modulation CD14 mRNA expression (Fold increase) (CD14 mRNA in THP-1 cells [3]; hydrochloride): 24.8 Fold increase

N[C@@H]1C[C@H]1c1ccc(NC(=O)c2cccc(N3CCOC3=O)c2)cc1 [Example 11, N-[4-[(1S,2R)-2-aminocyclopropyl]phenyl]-3-(2-oxooxazolidin-3-yl)benzamide Hydrochloride]
IC50 [1]: ≤ 5 µM
IC50 (MAO-A)/ IC50 (LSD1) (Human recombinant MAO A; hydrochloride): 5.93
Target modulation CD14 mRNA expression (fold increase versus vehicle) (CD14 mRNA in THP-1 cells [2]; hydrochloride): 15.1 fold increase versus vehicle
Colony formation % of Inhibition (human THP-1 cells; Hydrochloride, 0.5 µM): 36.3%
Colony formation Target Modulation CD14 mRNA expression (Fold increase) (CD14 mRNA in THP-1 cells [3]; hydrochloride): 27.7 Fold increase

N[C@@H]1C[C@H]1c1ccc(NC(=O)c2ccc(N3CCCCC3)c(NC(=O)OCc3ccccc3)c2)cc1 (relative stereo) [Example 8, Benzyl N-[5-[[4-[trans-2-aminocyclopropyl]phenyl]carbamoyl]-2-(1-piperidyl)phenyl]carbamate Hydrochloride]
IC50 ([1]; Homo sapiens): ≤ 5 µM

CN1CCN(c2ccc(C(=O)Nc3ccc([C@@H]4C[C@H]4N)cc3)cc2NC(=O)OCc2ccccc2)CC1 (relative stereo) [Example 7, Benzyl N-[5-[[4-[(trans-2-aminocyclopropyl]phenyl]carbamoyl]-2-(4-methylpiperazin-1-yl)phenyl]carbamate Dihydrochloride]
IC50 ([1]; Homo sapiens): ≤ 5 µM
IC50 (MAO-A)/ IC50 (LSD1) (Human recombinant MAO A): 11.2

N[C@H]1C[C@@H]1c1ccc(NC(=O)c2cccc(N3CCOC3=O)c2)cc1 [Example 13, N-[4-[(1R,2S)-2-aminocyclopropyl]phenyl]-3-(2-oxooxazolidin-3-yl)benzamide Hydrochloride]
IC50 ([1]; Homo sapiens): ≤ 5 µM
IC50 (MAO-A)/ IC50 (LSD1) (Human recombinant MAO A): 2.67
Target modulation CD14 mRNA expression (fold increase versus vehicle) (CD14 mRNA in THP-1 cells [2]): 3.1 fold increase versus vehicle
inhibition at 0.5 µM (human THP-1 cells): 19%
Colony formation Target Modulation CD14 mRNA expression (Fold increase) (CD14 mRNA in THP-1 cells [3]): 6 Fold increase

N[C@@H]1C[C@H]1c1ccc(NC(=O)c2ccc(N3CCOCC3)c(NC(=O)OCc3ccccc3)c2)cc1 (relative stereo) [Example 9, Benzyl N-[5-[[4-[trans-2-aminocyclopropyl]phenyl]carbamoyl]-2-morpholino-phenyl]carbamate hydrochloride]
IC50 ([1]; Homo sapiens): ≤ 5 µM
IC50 (MAO-A)/ IC50 (LSD1) (Human recombinant MAO A): 3.17

N[C@@H]1C[C@H]1c1ccc(NC(=O)c2ccccc2)cc1 (relative stereo) [Example 5b, N-[4-[trans-2-aminocyclopropyl]phenyl]benzamide, reference compound]
IC50 ([1]; Homo sapiens): 50 to 100 µM
IC50 (MAO-A)/ IC50 (LSD1) (Human recombinant MAO A): 1.56

N[C@@H]1C[C@H]1c1ccc(NC(=O)c2ccc(N3CCOCC3)cc2)cc1 (relative stereo) [Example 4, N-[4-[trans-2-aminocyclopropyl]phenyl]-4-morpholino-benzamide Hydrochloride]
IC50 ([1]; Homo sapiens): 5 to 50 µM

N[C@@H]1C[C@H]1c1ccc(NC(=O)c2ccc(-c3ccccc3)cc2)cc1 (relative stereo) [Example 5e, N-[4-[trans-2-aminocyclopropyl]phenyl]-4-phenyl-benzamide, reference compound]
activity on KDM1A (LSD1) [4]: inactive
IC50 ([1]; Homo sapiens): ≤ 5 µM
IC50 (Human recombinant MAO A; 50 nM MAO-A, 15 min preincubation, read-out: MAO-A inhibition IC50): 0.054 µM
Target modulation CD14 mRNA expression (fold increase versus vehicle) (CD14 mRNA in THP-1 cells [2]): 2.2 fold increase versus vehicle

N[C@@H]1C[C@H]1c1ccc(NC(=O)c2ccc(N3CCOC3=O)cc2)cc1 (relative stereo) [Example 5, N-[4-[trans-2-aminocyclopropyl]phenyl]-4-(2-oxooxazolidin-3-yl)benzamide Hydrochloride]
IC50 ([1]; Homo sapiens): 5 to 50 µM
